Source: patent US10780074B2, “Compounds and uses thereof” (Sunovion Pharmaceuticals Inc., priority 2017, dated 2020)
Structures can show the parent of a compound that is named as a salt. Where two headings read alike, the source gives them in different places.

System: behaviors of compound-treated mice
Experiment: Neuropharmacological Assay (SmartCube)
Type: in vivo
Details: for minimal effective dose: Mus musculus, ip, 0.25 h, dose having 50% or more total activity in SmartCube, read-out: MED (minimal effective dose)
How it was run: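 Behavioral signatures were captured automatically by video, and each drug class received a probability for the best of three i.p. doses given 15 min pre-test (vehicle: Pharmasolve/PEG/propylene glycol). Potency is given as MED, the lowest mpk dose (typically 0.3–30) reaching 50% or more total activity.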

[1] = SmartCube, i.p. 15 min before test, most efficacious dose(s)
[2] = i.p. 15 min before behavioral test, most efficacious dose(s) of 3 doses

Row | Compound | minimal effective dose | AD: ADHD (probability that activity matches class) [1] | AG: analgesic (probability that activity matches class) [1] | AX: anxiolytic (probability that activity matches class) [1] | CE: cognitive enhancer (probability that activity matches class) [1] | DP: anti-depressant (probability that activity matches class) [1] | MS: mood stabilizer (probability that activity matches class) [1] | PS: anti-psychotic (probability that activity matches class) [1] | SD: sedative hypnotic (probability that activity matches class) [1] | UN: uncharacterized CNS activity (probability that activity matches class) [1] | minimal effective dose (i.p.) | AD: ADHD (probability that activity matches class) [2] | AG: analgesic (probability that activity matches class) [2] | AX: anxiolytic (probability that activity matches class) [2] | CE: cognitive enhancer (probability that activity matches class) [2] | DP: anti-depressant (probability that activity matches class) [2] | MS: mood stabilizer (probability that activity matches class) [2] | PS: anti-psychotic (probability that activity matches class) [2] | SD: sedative hypnotic (probability that activity matches class) [2] | UN: uncharacterized CNS activity (probability that activity matches class) [2]
1 | c1cc(-c2ccncc2)c2c(c1)[C@@H](CNC1CC1)OCC2 (single isomer, unassigned) [Compound 181, hydrochloride salt] | ≤ 3 mg/kg | ++ (5% ≤ ++ <25%) | + (LOQ ≤ + <5%) | + (LOQ ≤ + <5%) | + (LOQ ≤ + <5%) | ++++ (50% ≤ ++++) | + (LOQ ≤ + <5%) | + (LOQ ≤ + <5%) | + (LOQ ≤ + <5%) | ++ (5% ≤ ++ <25%) | – | – | – | – | – | – | – | – | – | –
2 | CNC[C@H]1OCCc2cc(-c3ncccn3)ccc21 [Compound 22, (S)—N-Methyl-1-(6-(pyrimidin-2-yl)isochroman-1-yl)methanamine hydrochloride salt] | – | – | – | – | – | – | – | – | – | – | 10 to 30 mg/kg | + (LOQ ≤ + <5%) | ++ (5% ≤ ++ <25%) | ++ (5% ≤ ++ <25%) | ++ (5% ≤ ++ <25%) | ++ (5% ≤ ++ <25%) | + (LOQ ≤ + <5%) | + (LOQ ≤ + <5%) | + (LOQ ≤ + <5%) | +++ (25% ≤ +++ <50%)
3 | NC[C@@H]1OCCc2c(-c3ccccn3)cccc21 (single isomer, unassigned) [Compound 45, hydrochloride] | – | – | – | – | – | – | – | – | – | – | 10 to 30 mg/kg | + (LOQ ≤ + <5%) | ++ (5% ≤ ++ <25%) | ++ (5% ≤ ++ <25%) | + (LOQ ≤ + <5%) | ++ (5% ≤ ++ <25%) | + (LOQ ≤ + <5%) | + (LOQ ≤ + <5%) | + (LOQ ≤ + <5%) | +++ (25% ≤ +++ <50%)
4 | NC[C@@H]1OCCc2c1cccc2-n1cccn1 [Compound 188, (R)-(5-(1H-pyrazol-1-yl)isochroman-1-yl)methanamine hydrochloride salt] | 10 to 30 mg/kg | ++ (5% ≤ ++ <25%) | + (LOQ ≤ + <5%) | ++ (5% ≤ ++ <25%) | + (LOQ ≤ + <5%) | + (LOQ ≤ + <5%) | + (LOQ ≤ + <5%) | + (LOQ ≤ + <5%) | + (LOQ ≤ + <5%) | ++++ (50% ≤ ++++) | – | – | – | – | – | – | – | – | – | –
5 | CNC[C@@H]1OCc2c(-c3cccnc3)cccc21 [Compound 33, (R)—N-Methyl-1-(4-(pyridin-3-yl)-1,3-dihydroisobenzofuran-1-yl)methanamine hydrochloride salt] | – | – | – | – | – | – | – | – | – | – | 10 to 30 mg/kg | + (LOQ ≤ + <5%) | + (LOQ ≤ + <5%) | ++ (5% ≤ ++ <25%) | + (LOQ ≤ + <5%) | ++++ (50% ≤ ++++) | + (LOQ ≤ + <5%) | + (LOQ ≤ + <5%) | + (LOQ ≤ + <5%) | + (LOQ ≤ + <5%)
6 | NC[C@H]1OCc2c(-c3cccnc3)cccc21 [Compound 36, (S)-(4-(Pyridin-3-yl)-1,3-dihydroisobenzofuran-1-yl)methanamine hydrochloride] | – | – | – | – | – | – | – | – | – | – | ≤ 3 mg/kg | ++ (5% ≤ ++ <25%) | + (LOQ ≤ + <5%) | + (LOQ ≤ + <5%) | ++ (5% ≤ ++ <25%) | ++++ (50% ≤ ++++) | + (LOQ ≤ + <5%) | + (LOQ ≤ + <5%) | + (LOQ ≤ + <5%) | + (LOQ ≤ + <5%)
7 | NC[C@H]1OCCCc2c(-c3ccccn3)cccc21 [Compound 159, (S)-(6-(pyridin-2-yl)-1,3,4,5-tetrahydrobenzo[c]oxepin-1-yl)methanamine hydrochloride salt] | – | – | – | – | – | – | – | – | – | – | 10 to 30 mg/kg | + (LOQ ≤ + <5%) | + (LOQ ≤ + <5%) | + (LOQ ≤ + <5%) | + (LOQ ≤ + <5%) | + (LOQ ≤ + <5%) | + (LOQ ≤ + <5%) | + (LOQ ≤ + <5%) | + (LOQ ≤ + <5%) | + (LOQ ≤ + <5%)
8 | CNC[C@H]1OCCc2ccc(-c3ccncc3)cc21 [Compound 50, (S)—N-Methyl-1-(7-(pyridin-4-yl)isochroman-1-yl)methanamine hydrochloride] | – | – | – | – | – | – | – | – | – | – | 3 to 10 mg/kg | + (LOQ ≤ + <5%) | + (LOQ ≤ + <5%) | ++ (5% ≤ ++ <25%) | ++ (5% ≤ ++ <25%) | ++ (5% ≤ ++ <25%) | + (LOQ ≤ + <5%) | + (LOQ ≤ + <5%) | + (LOQ ≤ + <5%) | ++++ (50% ≤ ++++)
9 | CNC[C@@H]1OCCc2c(-c3ccccc3)cccc21 (single isomer, unassigned) [Compound 128, hydrochloride salt] | – | – | – | – | – | – | – | – | – | – | 10 to 30 mg/kg | + (LOQ ≤ + <5%) | + (LOQ ≤ + <5%) | + (LOQ ≤ + <5%) | + (LOQ ≤ + <5%) | + (LOQ ≤ + <5%) | + (LOQ ≤ + <5%) | + (LOQ ≤ + <5%) | + (LOQ ≤ + <5%) | + (LOQ ≤ + <5%)
10 | CNC[C@H]1OCCc2c(-c3c[nH]cn3)cccc21 (single isomer, unassigned) [Compound 115, hydrochloride salt] | – | – | – | – | – | – | – | – | – | – | 10 to 30 mg/kg | + (LOQ ≤ + <5%) | + (LOQ ≤ + <5%) | ++ (5% ≤ ++ <25%) | + (LOQ ≤ + <5%) | + (LOQ ≤ + <5%) | + (LOQ ≤ + <5%) | + (LOQ ≤ + <5%) | + (LOQ ≤ + <5%) | + (LOQ ≤ + <5%)
11 | NCC1OCCc2c(-c3cccnn3)cccc21 (stereo not shown) [Compound 62, (5-(Pyridazin-3-yl)isochroman-1-yl)methanaminehydrochloride salt] | – | – | – | – | – | – | – | – | – | – | > 30 mg/kg | + (LOQ ≤ + <5%) | + (LOQ ≤ + <5%) | ++ (5% ≤ ++ <25%) | + (LOQ ≤ + <5%) | ++ (5% ≤ ++ <25%) | + (LOQ ≤ + <5%) | + (LOQ ≤ + <5%) | + (LOQ ≤ + <5%) | + (LOQ ≤ + <5%)
12 | CNC[C@@H]1OCCc2c(-c3ccnnc3)cccc21 (single isomer, unassigned) [Compound 76, hydrochloride salt] | – | – | – | – | – | – | – | – | – | – | 3 to 10 mg/kg | + (LOQ ≤ + <5%) | ++ (5% ≤ ++ <25%) | ++ (5% ≤ ++ <25%) | + (LOQ ≤ + <5%) | + (LOQ ≤ + <5%) | + (LOQ ≤ + <5%) | + (LOQ ≤ + <5%) | + (LOQ ≤ + <5%) | + (LOQ ≤ + <5%)
13 | CNCC1OCCc2ccc(-c3ccncn3)cc21 (stereo not shown) [Compound 58, N-Methyl-1-(7-(pyrimidin-4-yl)isochroman-1-yl)methanamine hydrochloride salt] | – | – | – | – | – | – | – | – | – | – | 10 to 30 mg/kg | + (LOQ ≤ + <5%) | + (LOQ ≤ + <5%) | ++ (5% ≤ ++ <25%) | + (LOQ ≤ + <5%) | + (LOQ ≤ + <5%) | + (LOQ ≤ + <5%) | + (LOQ ≤ + <5%) | + (LOQ ≤ + <5%) | ++++ (50% ≤ ++++)
